Tests used:
adenosine A1 receptor [1] = target: T1, adenosine A1 receptor (Bos taurus, UniProt P28190); assay: Receptor affinity (radioligand binding), A1, [3H]CHA; parameters: species or system bovine; details: for Ki: [3H]CHA, room temperature, 2 hours, tissues listed: bovine caudate, guinea pig cortex, guinea pig striatum (only Example 13 marked guinea pig); for Selectivity Ratio (A2 Ki /A1 Ki): radioligand binding
T1 construct: were homogenized with a Brinkman polytron and the membranes were collected by centrifugation; from tissue; host or cells: bovine caudate membranes
T1 sequence (P28190 1-326): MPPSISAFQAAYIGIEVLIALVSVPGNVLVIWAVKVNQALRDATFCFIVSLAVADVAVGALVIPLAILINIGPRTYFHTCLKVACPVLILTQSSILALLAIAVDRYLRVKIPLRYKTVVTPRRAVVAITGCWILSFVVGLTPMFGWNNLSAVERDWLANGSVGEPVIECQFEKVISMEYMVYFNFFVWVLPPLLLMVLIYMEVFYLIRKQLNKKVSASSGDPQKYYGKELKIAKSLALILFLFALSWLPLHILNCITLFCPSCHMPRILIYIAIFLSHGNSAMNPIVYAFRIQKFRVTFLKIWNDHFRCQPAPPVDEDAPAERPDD
Description: (§1) 1. Receptor Affinity Experiments (Radioligand Binding)
(§2) Tissues (bovine caudate, guinea pig cortex, guinea pig striatum) were homogenized with a Brinkman polytron and the membranes were collected by centrifugation at 40,000×g at 4° C. for 10 min. The membranes were washed by resuspension and centrifugation, resuspended, and incubated in the presence of 1 U/ml adenosine deaminase for 15-30 min. at 37° C. The membranes were diluted, centrifuged once, and resuspended to a final concentration of 0.5-2 mg protein/ml. Adenosine deaminase (0.1 U/ml) was included in the final resuspension. Assays were initiated by addition of membranes. The compounds of the present invention were subjected to the following experimental conditions: A1 determinations/incubated with [^3 H]CHA at room temperature for 2 hours, A2 determinations/incubated with [^3 H]NECA at room temperature for 1 hour. Assays were terminated by filtration, and the filters were counted in scintillation counters.

adenosine A2 receptor = assay: Receptor affinity (radioligand binding), A2, [3H]NECA; parameters: species or system bovine / guinea pig; details: room temperature, 1 hour
Description: as §1, §2

adenosine A1 receptor [2] = target: T2, adenosine A1 receptor (Cavia porcellus, UniProt P47745); assay: A1 in vitro functional test: negative inotropic response, left atria, antagonism of NECA; type: cell-based, guinea pig; details: for Selectivity Ratio (A2 KB /A1 KB): functional; for Kb: guinea pig left atria, electrically evoked twitch, NECA agonist, 31° C, Schild plot, read-out: A1 KB (antagonist dissociation constant)
T2 construct: from tissue; host or cells: isolated guinea pig left atria
T2 sequence (P47745 1-326): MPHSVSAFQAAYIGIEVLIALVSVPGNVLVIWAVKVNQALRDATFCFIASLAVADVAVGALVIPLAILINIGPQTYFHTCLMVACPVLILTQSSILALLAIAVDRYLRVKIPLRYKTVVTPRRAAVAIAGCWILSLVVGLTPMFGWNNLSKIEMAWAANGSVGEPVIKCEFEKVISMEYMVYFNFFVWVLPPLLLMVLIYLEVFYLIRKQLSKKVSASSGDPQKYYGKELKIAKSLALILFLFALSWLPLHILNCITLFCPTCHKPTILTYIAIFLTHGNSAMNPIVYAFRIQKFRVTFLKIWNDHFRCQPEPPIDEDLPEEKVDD
Description: 2. Adenosine--A1 /A2 In Vitro Functional Tests
(A1 Assay: Negative inotropic response)-Guinea pig left atria were placed in organ baths filled with Krebs Henseleit solution gassed with 95% O2 and 5% CO2 and maintained at a temperature of 31° C. An initial resting tension of 1 gm. was placed on each tissue, which was allowed to equilibrate. Atria were stimulated electrically to produce twitch responses. A dose-response curve for the inhibition of the electrically-evoked twitch response was obtained by cumulative addition of the adenosine agonist […]. After the washout of the tissue, a fixed concentration of test compound was added and the tissue allowed to equilibrate for 1 hr. before cumulative additions of the adenosine agonist 5'-N-ethylcarboxamidoadenosine (NECA) to generate a new dose response curve. This procedure was repeated with different fixed concentrations of test compounds to generate a family of dose response curves. Schild plots were constructed from the resultant concentration-effect curves, and KB (antagonist dissociation constant) values were obtained. The results (see Table VII) are expressed as KB values (concentration of test compound such that one-half of the tissue adenosine receptor population is occupied by the test compound).

| SMILES | Ki (adenosine A1 receptor [1]) | Selectivity Ratio (A2 Ki /A1 Ki) (adenosine A1 receptor [1]) | Ki (adenosine A2 receptor) | Selectivity Ratio (A2 KB /A1 KB) (adenosine A1 receptor [2]) | Kb (adenosine A1 receptor [2]) |
| --- | --- | --- | --- | --- | --- |
| Cn1c(C#N)nc2c(N[C@H]3C[C@H]4CC[C@@H]3C4)ncnc21 (relative stereo) [Example 1, (±)-N^6-(endo-2'-norbornyl)-8-cyano-9-methyladenine] | 3.89 nM | 362 | 1410 nM | 46 | 81 nM |
| Cn1c(C(N)=O)nc2c(N[C@H]3C[C@H]4CC[C@@H]3C4)ncnc21 (relative stereo) [Example 2, (±)-N^6-(endo-2'-norbornyl)-8-amido-9-methyladenine] | 12.9 nM | 275 | 3550 nM | > 390 | 257 nM |
| CSc1nc2c(N[C@H]3C[C@H]4CC[C@@H]3C4)ncnc2n1C (relative stereo) [Example 3, (±)-N^6-[endo-2'-norbornyl]-8-methylthio-9-methyladenine] | 6.03 nM | 66 | 398 nM | > 1540 | 65 nM |
| COc1nc2c(N[C@H]3C[C@H]4CC[C@@H]3C4)ncnc2n1C (relative stereo) [Example 4, (±)-N^6-(endo-2'-norbornyl)-8-methoxy-9-methyladenine] | 12 nM | 43 | 513 nM | 250 | 105 nM |
| CN(C)c1nc2c(N[C@H]3C[C@H]4CC[C@@H]3C4)ncnc2n1C (relative stereo) [Example 5, (+)-N^6-(endo-2'-norbornyl)-8-dimethylamino-9-methyladenine] | 3.71 nM | 166 | 617 nM | 362 | 110 nM |
| Cn1c(N2CCOCC2)nc2c(N[C@H]3C[C@H]4CC[C@@H]3C4)ncnc21 (relative stereo) [Example 6] | 24 nM | > 417 | > 10000 nM | – | – |
| Cn1c(N2CCCC2)nc2c(N[C@H]3C[C@H]4CC[C@@H]3C4)ncnc21 (relative stereo) [Example 7] | 19 nM | > 526 | > 10000 nM | – | – |
| Cn1c(N2CCSCC2)nc2c(N[C@H]3C[C@H]4CC[C@@H]3C4)ncnc21 (relative stereo) [Example 9] | 7.94 nM | 1,259 | 10000 nM | – | – |
| CCN(CC)c1nc2c(N[C@H]3C[C@H]4CC[C@@H]3C4)ncnc2n1C (relative stereo) [Example 10, (±)-N^6-(endo-2'-norbornyl)-8-diethylamino-9-methyladenine] | 1 nM | 331 | 331 nM | – | 117 nM |
| CCCCN(C)c1nc2c(N[C@H]3C[C@H]4CC[C@@H]3C4)ncnc2n1C (relative stereo) [Example 11] | 45.8 nM | 240 | 11000 nM | – | – |
| CC(C)N(C)c1nc2c(N[C@H]3C[C@@H]4C[C@H]3C[C@@H]4O)ncnc2n1C (relative stereo) [Example 16, (±)-N^6-[endo-2'-(endo-5'-hydroxy)norbornyl]-8-isopropylmethylamino-9-methyladenine] | 0.0891 nM | 2,626 | 234 nM | 4450 | 4 nM |
| Cn1c(Br)nc2c(N[C@H]3C[C@@H]4C[C@H]3C[C@@H]4O)ncnc21 (relative stereo) [Example 17, (±)-N^6-[endo-2'-(endo-5'-hydroxy)norbornyl]-8-bromo-9-methyladenine] | 1.17 nM | 59 | 69.2 nM | 65 | 30 nM |
| CCN(CC)c1nc2c(NC3CCCC3)ncnc2n1C [Example 14] | 3.72 nM | 117 | 436 nM | – | – |
| Cn1c(N2CCOCC2)nc2c(NC3CCCC3)ncnc21 [Example 15] | 42 nM | > 238 | > 10000 nM | – | – |

More lines, now with the values ahead:

| Ki (adenosine A1 receptor [1]) | Selectivity Ratio (A2 Ki /A1 Ki) (adenosine A1 receptor [1]) | Ki (adenosine A2 receptor) | Selectivity Ratio (A2 KB /A1 KB) (adenosine A1 receptor [2]) | Kb (adenosine A1 receptor [2]) | SMILES |
| --- | --- | --- | --- | --- | --- |
| 2.75 nM | 100 | 275 nM | – | 72 nM | CN(C)c1nc2c(N[C@H]3C[C@@H]4C[C@H]3C[C@@H]4O)ncnc2n1C (relative stereo) [Example 18, (±)-N^6-[endo-2'-(endo-5'-hydroxy)norbornyl]-8-dimethylamino-9-methyladenine] |
| 19 nM | > 526 | > 10000 nM | – | – | Cn1c(N2CCOCC2)nc2c(N[C@H]3C[C@@H]4C[C@H]3C[C@@H]4O)ncnc21 (relative stereo) [Example 25] |
| 9.55 nM | 602 | 5750 nM | – | – | CC(C)Nc1nc2c(N[C@@H]3C[C@H]4C[C@@H]3C[C@H]4O)ncnc2n1C (relative stereo) [Example 26] |
| 5.01 nM | 132 | 661 nM | – | – | Cn1c(Br)nc2c(N[C@@H]3C[C@H]4C[C@@H]3C[C@@H]4O)ncnc21 (relative stereo) [Example 27] |
| 8.31 nM | 550 | 4570 nM | – | – | CN(C)c1nc2c(N[C@@H]3C[C@@H]4CC(=O)[C@H]3C4)ncnc2n1C (relative stereo) [Example 28] |
| 501 nM | > 20 | > 10000 nM | – | – | Cn1cnc2c(N[C@@H]3C[C@H]4C[C@@H]3CC4=O)ncnc21 (relative stereo) [Example 29, (±)-N^6-[endo-2'-aminonorbornan-5-one]-9-methyladenine] |
| 42.7 nM | 269 | 11500 nM | – | – | Cn1cnc2c(N[C@H]3C[C@H]4C[C@@H]3CC4=O)ncnc21 (relative stereo) [Example 33] |
| 69.2 nM | 218 | 15100 nM | – | – | Cn1cnc2c(N[C@H]3C[C@@H]4CC(=O)[C@H]3C4)ncnc21 (relative stereo) [Example 34] |
| 295 nM | 120 | 35500 nM | – | – | Cn1cnc2c(N[C@H]3C[C@H]4C[C@@H]3[C@H](O)C4)ncnc21 (relative stereo) [Example 35] |
| 11.5 nM | 397 | 4570 nM | – | – | Cn1cnc2c(N[C@H]3C[C@H]4C[C@@H]3c3ccc(O)cc34)ncnc21 (relative stereo) [Example 37, (±)-N^6-(exo-2'-amino-6'-hydroxybenzonorbornyl)-9-methyladenine] |
| 28.8 nM | 224 | 6460 nM | – | – | CCCn1cnc2c(N[C@@H]3C[C@H]4C[C@@H]3C[C@H]4O)ncnc21 (relative stereo) [Example 42] |
| 257 nM | > 39 | > 10000 nM | – | – | CCCn1cnc2c(N[C@@H]3C[C@H]4C[C@@H]3C[C@@H]4O)ncnc21 (relative stereo) [Example 43] |
| 251 nM | 85 | 21400 nM | – | – | CC(C)n1cnc2c(N[C@@H]3C[C@H]4C[C@@H]3CC4=O)ncnc21 (relative stereo) [Example 44] |
| 295 nM | > 34 | > 10000 nM | – | – | CC(C)n1cnc2c(N[C@@H]3C[C@H]4C[C@@H]3C[C@H]4O)ncnc21 (relative stereo) [Example 45] |
| 295 nM | > 34 | > 10000 nM | – | – | CC(C)n1cnc2c(N[C@@H]3C[C@H]4C[C@@H]3C[C@@H]4O)ncnc21 (relative stereo) [Example 46] |

Reference: patent US5670501A, “N-substituted 9-alkyladenines” (Discovery Therapeutics, Inc., priority 1994, dated 1997)
